Results from patent US6780622B2, “Diterpene cyclase and methods of use” (Florida Atlantic University, priority 2002, dated 2004).
Non-standard residues stand in square brackets, D forms with d. Residues, ends and D or L forms follow the SMILES beside them. *: point of attachment. Sta = CC(C)C[C@H](N)[C@@H](O)CC(=O)O; Isovaleryl = CC(C)CC(=O)*

Test: Cyclization of 3H-GGPP by purified elisabethatriene cyclase-containing chromatography fractions
Format: biochemical, Pseudopterogorgia elisabethae
Conditions: judged by the formation of pseudopterosins
Method: An example of a method for cyclizing GGPP to elisabethatriene includes the steps of providing purified elisabethatriene cyclase and contacting the GGPP substrate with the purified elisabethatriene cyclase under reaction conditions that result in the production of elisabethatriene. Any suitable reaction conditions that result in the production of elisabethatriene may be used. For example, ^3H-GGPP (1 μCi) is incubated with a suitable amount of purified elisabethatriene cyclase at 27° C. for 1-4 hours.
To purify enzymatically active elisabethatriene cyclase, CFE samples were subjected to DEAE ion-exchange chromatography, phenyl sepharose chromatography, hydroxyapatite chromatography, and UNO™ [2-Propen-1-aminium, N,N,-dimethyl-N-2-propenyl-, chloride, polymer with 1,4-bis(1-oxo-2-propenyl)piperazine and 2-methyl-2-propenamide] ion exchange chromatography (Bio-Rad Laboratories, Hercules, Calif.). Active fractions were obtained in all cases. Fractions resulting from these purification techniques were concentrated by ultracentrifugation, and then 0.5-100 μg (brought up to a total volume of 500 μl) was assayed for enzymatic activity by incubation with 1 μCi [1]^3H-GGPP for 1 hour in 20 mM Tris buffer (pH 7.7, 3 mM EDTA, 5 mM β-mercaptoethanol, 5 mM MgCl2). Samples were quenched, extracted with 500 μl hexanes and partially purified by passing through a small silica gel pasteur pipette column. Elisabethatriene was then added as “cold carrier” and incubations were purified by high-performance liquid chromatography (HPLC). […] Radioactivity in HPLC fractions was quantified by scintillation counting.
Using elisabethatriene cyclase purified by column chromatography as described in Example 1, GGPP was cyclized to elisabethatriene. To carry out the reaction, incubations were performed by incubating ^3H-GGPP(1 μCi) with purified elisabethatriene cyclase-containing fractions from chromatography columns at 27° C. for 1-4 hours.

Compound	effect of adding protease inhibitors on enzymatic activity of the fractions
CC(=O)N[C@@H](CC(C)C)C(=O)N[C@@H](CC(C)C)C(=O)N[C@H](C=O)CCCNC(=N)N [leupeptin]	did not increase the enzymatic activity
CC(C)C[C@H](NC(=O)[C@@H](NC(=O)N[C@@H](Cc1ccccc1)C(=O)O)[C@@H]1CCN=C(N)N1)C(=O)N[C@H](C=O)Cc1ccccc1 [chymostatin]	did not increase the enzymatic activity
CC(C)CC(=O)N[C@H](C(=O)N[C@H](C(=O)N[C@@H](CC(C)C)[C@@H](O)CC(=O)N[C@@H](C)C(=O)N[C@@H](CC(C)C)[C@@H](O)CC(=O)O)C(C)C)C(C)C [pepstatin] (Isovaleryl-VV[Sta]A[Sta]-OH)	did not increase the enzymatic activity
